Entries after “also recorded” stand apart in the source; their conditions may differ.
Test system: B16 melanoma cells
Assay: Phage binding assay on B16 melanoma cells pre and post co-culture with B-1 lymphocytes
Format: cell-based, mouse
Description: The inventors used a random phage library displaying the insert CX7C(C, cysteine; X, any residue) for selection of peptides binding to melanoma cells post co-culture with B-1 lymphocytes (Giordano et al., 2001). As a pre-clearing step, 10^6 B16 cells without exposure to B-1 lymphocytes were detached, washed and resuspended in RPMI containing 2% BSA plus 10^9 transducing units (TU) of unselected phage library. Cells and phage were transferred to the top of a non-miscible organic lower phase (dibutyl phthalate: cyclohexane, 9:1 [v:v]) and centrifuged at 10,000 g for 10 min. The unbound phage population remaining in the aqueous upper phase (pre-cleared library) was collected into a fresh eppendorf tube and incubated with 10^6 B16 cells isolated post co-culture with B-1 lymphocytes. Phage in the organic lower phase were recovered from the cell pellet by bacterial host infection (Pasqualini et al., 2000; Cardo-Vila et al., 2003; Marchio et al., 2004; Marchio et al., 2004; Kolonin et al., 2004; Arap et al, 2004; Hajitou et al., 2006).
For phage binding assays to B16 melanoma, 10^6 cells pre and post co-culture with B-1 lymphocytes were incubated with each specific phage clone (10^9 TU) or negative controls. Melanoma cells and phage were centrifuged through the organic phase and the cell-bound phage clones were recovered by bacterial infection (Giordano et al., 2001).

## CLFMRLAWC [SEQ ID NO:1]
  phage/peptide binding to melanoma cells (in words): marked enrichment in phage binding; also recorded: selectively bind to cancerous cells

— patent US8450278B2, “MUC18 targeting peptides” (Board of Regents, The University of Texas System, priority 2008, dated 2013)
